Laboratory results reported in ChEMBL document CHEMBL1137454, “Natural bromophenols from the marine red alga Polysiphonia urceolata (Rhodomelaceae): structural elucidation and DPPH radical-scavenging activity” (Bioorg Med Chem, 2007).

Assay: DPPH radical scavenging activity relative to control
Format: functional

Going from `CC(=O)/C=C/c1cc(O)c(O)c(Br)c1` to `Oc1cc(CCc2cc(O)c(O)c(Br)c2)cc(Br)c1O`, the IC50 rises from 9.67 µM to 19.6 µM (2-fold). The first is the more potent here.

`CCCCOC(=O)Cc1cc(Br)c(O)c(Br)c1` and `O=C(O)C(Cc1cc(O)c(O)c(Br)c1)c1cc(Br)c(O)c(Br)c1` (stereo not given) are within 1.5-fold of each other in IC50: 16.1 µM for the first, 21.9 µM for the second.

With `Cc1cc(C(C)(C)C)c(O)c(C(C)(C)C)c1` [BUTYLATED HYDROXYTOLUENE] the IC50 was 83.8 µM.
